Source: PMC12530846, “Development of Novel Anticancer Pyrazolopyrimidinones Targeting Glioblastoma” (Chemmedchem, 2025)
pIC50: −log10 of the molar value.

Tests used:
Assay type in all cases: cell-based, human
[1] = test system: U‐251 MG and HEK293 cells; assay: Statistical comparison of dose–response in U‐251 MG versus HEK293 (selectivity, HIT criteria); details: for All criteria met -Yes/No: HIT criteria and statistical testing, Table S1; for Selectivity for cancer cells with IC50 < 50 [µM]‐Yes/No: HEK293 IC50 higher than U‐251 MG IC50, U‐251 MG IC50 below 50 µM
HEK293 cells = assay: MTT cell viability assay, noncancerous HEK293 cells, 5 days treatment; details: for cytotoxicity / biological response in HEK293, in words: 5 days, up to 100 µM, threshold 50 µM; for pIC50: 5 days treatment, 100–0 µM
Experimental: (§1) Dose–response curves for each of the pyrazolo[1,5‐α]pyrimidinones were performed to determine the cytotoxic effect of the compounds on a cancerous, U‐251 MG cell line and a noncancerous, HEK293 cell line. The synthesized pyrazolopyrimidinones were dissolved in DMSO (Merck) to obtain a stock solution which was stored at −20 °C. […] U‐251 MG and HEK293 cells were seeded at a density of 2 x 10^3 cells per well (100 μL) in a 96‐well plate (Sarstedt) and incubated for 24 h prior to each treatment to allow for cell adhesion. The stock solution was diluted in media to working concentrations of 100, 75, 50, 25, 10, 5, and 0.1 μM. Media on the seeded cells was then replaced with the working concentrations of the compound or the controls in a 96‐well plate (100 μL). The treated plate was incubated at 37 °C in the humidified incubator for 5 days. Cell viability was assessed after 5 days using the MTT assay. Dose–response curves were then plotted relative to the positive control whereby cells were treated 20% DMSO and a negative control whereby cells were maintained in fresh DMEM.
(§2) To determine the extent of the cytotoxic effect of the pyrazolopyrimidinone on each cell line, the cell viability at each working concentration was determined via the MTT assay (Merck). The working solution of MTT used was 5 mg MTT per 1 ml of PBS diluted in 9 ml of media. After 5 days of incubation, the treatment was removed from each of the wells and replaced with 100 μL of fresh MTT solution. The plate was then incubated for 3 h at 37 °C in a humidified incubator to allow the reduction of the yellow tetrazolium salt to purple formazan crystals. After the incubation, the MTT solution was removed from the wells and replaced with 100 μL of DMSO for 15 min to dissolve the formazan crystals. The absorbance was read at 570 nm using a spectrophotometric microplate reader (Thermo Fisher Scientific).
(§3) Each of the experiments was performed at least three independent times, with a minimum of six technical replicates per experiment. Statistical analysis was carried out using GraphPad Prism version 8.0.0 (GraphPad Softwares, Inc.). Curve fitting and the IC50 values were obtained through the dose–response curves using nonlinear regression. To determine if the dose–response curves were statistically distinct and not overlapping, extra sum‐of‐squares F‐test was used, and a p‐value was obtained. The effect of compound treatment on both cell lines was statistically compared via two‐way ANOVA with Tukey's post‐test. The CytExpert (Beckman Coulter) software was used for flow cytometry analysis. Graphs represent the % dead cells whereby the total number of dead cells was divided by the total cell population. The statistical significance of the flow cytometry results was determined via one‐way analysis of variance (ANOVA) with Dunnett's T3 multiple comparison post‐test. Data is presented as the mean ± standard error of mean (SEM). Summary of results from statistical analysis reports p‐values as follows: ≥0.05 (ns), 0.01–0.05 (*), 0.001–0.01 (**), […], and <0.0001(****).

U‐251 MG cells [2] = assay: MTT cell viability assay, U‐251 MG glioblastoma cells, 5 days treatment; details: for cytotoxicity / biological effect on U‐251 MG, in words: 5 days, up to 100 µM; for pIC50: 5 days treatment, 100–0 µM
Experimental: as §1, §2, §3

U‐251 MG cells [3] = assay: JC‐1 flow cytometry, mitochondrial membrane depolarization / apoptosis; details: 5 days; for apoptosis observed (JC-1): example analysis, negative control 8.64 %
Experimental: JC‐1 dye forms aggregates in healthy mitochondria which changes the fluorescent property of the dye. […] Stock solutions of JC‐1 dye (Merck) were prepared at 1 mg/mL in DMSO and stored at −20 °C. U‐251 MG cells were seeded in 6‐well plates (Sarstedt) at a seeding density of 2 x 10^4 cells per well (1000μL) after which cells were treated with drug concentrations (highest toxic, IC50, nontoxic). After 5 days incubation, the compound and wash step with PBS was collected in falcon tubes. The cells were then harvested by trypsinization (500 μL), incubated for a period of 6 min, neutralized with media (1000 μL), and pelleted at 1200rpm for 5 min. A JC‐1 working solution of 2 μg/mL was made up in DMEM and was light protected. The cell pellet was resuspended and stained with 2 μg/mL JC‐1 dye and incubated and protected from the light for a period of 10 min. Cells were then centrifuged at 1200rpm for 5 min. The supernatant was removed, and cells were washed with 1 mL of sterile PBS. This was repeated twice. […] Cells were also treated using controls whereby the positive control used was DMEM and 20% DMSO and the negative control used was fresh media. The cells were then analyzed using flow cytometry (Beckmann Coulter, CytExpert version 2.4.0.28). Fluorescence was measured using FL1 (FITC) (530 nm) and FL2 (PE) (595 nm) channels with emission.
as §3

U‐251 MG cells [4] = assay: Propidium iodide (PI) flow cytometry, cell membrane permeabilization; details: 5 days
Experimental: Propidium iodide (PI) is a DNA staining, cell membrane impermeable dye which was used to assess cell death via loss of membrane integrity and is used to indicate necrotic or late apoptotic cells. Stock solutions of PI dye (Merck, Ireland) were prepared at 10 μg/mL in PBS and stored at −20 °C. U‐251 MG cells were seeded in 96‐well plates at a seeding density of 2 x 10^3 cells per well (100 μL), as previously stated. […] Subsequently, the compound was collected in 15 ml falcon tubes. Cells were washed with PBS (100 μL), and the PBS was collected in corresponding tubes to ensure all cells are collected. The cells were collected using 0.25% trypsin‐EDTA (50 μL) with a 6‐min incubation and media neutralization (100 μL). Each tube was centrifuged at 1200rpm for 5 min to obtain a pellet. The supernatant was removed, and the pellet was resuspended in PBS and transferred to an Eppendorf tube. Ten microliters of PI stain (2.5 μg/ml) was added to the Eppendorf tubes, and the tubes were incubated for a period of 15 min. Cells were also treated using controls whereby the positive control used was DMEM and 20% DMSO and the negative control used was fresh media. The cells were then analyzed using flow cytometry (Beckmann Coulter, CytExpert version 2.4.0.28). Fluorescence was measured using the FL2 channel. PI was detected in the red channel which is R‐phycoerythrin (PE‐Cy5). PE was used in combination with fluorescein isothiocyanate (FITC) and is excited at a wavelength of 488 nm.
as §3

[5] = highest non-toxic concentration

| SMILES | All criteria met -Yes/No [1] | pIC50 (HEK293 cells; Homo sapiens, HEK293, 120 h) | Selectivity for cancer cells with IC50 < 50 [µM]‐Yes/No [1] | pIC50 (U‐251 MG cells [2]; Homo sapiens, U-251, 120 h) | other results |
| --- | --- | --- | --- | --- | --- |
| Cc1cc2[nH]c(C)cc(=O)n2n1 [Compound 16] | No | – | – | – | – |
| O=c1cc(-c2cc(C(F)(F)F)cc(C(F)(F)F)c2)[nH]c2cc(-c3ccco3)nn12 [Compound 13] | No | – | – | – | cytotoxicity / biological response in HEK293, in words (HEK293 cells): no cytotoxicity; cytotoxicity / biological effect on U‐251 MG, in words (U‐251 MG cells [2]): no cytotoxicity |
| COc1ccc(-c2cc3[nH]c(-c4cc(C(F)(F)F)cc(C(F)(F)F)c4)cc(=O)n3n2)cc1 [Compound 11] | No | > 4.52 | No | 4.63 | pIC50 (HEK293 cells): 4.53 |
| O=c1cc(-c2cc(C(F)(F)F)cc(C(F)(F)F)c2)[nH]c2cc(-c3ccc(F)cc3)nn12 [Compound 6] | – | 4.17 | No | 4.28 | – |
| CC(C)c1cc2[nH]c(-c3ccccc3)cc(=O)n2n1 [Compound 2] | – | 5.01 | No | > 4.70 | pIC50 (U‐251 MG cells [2]): 4.69 |
| CC(C)c1cc2[nH]c(C(C)C)cc(=O)n2n1 [Compound 18] | No | 3.93 | No | 3.77 | – |
| Cc1cc(=O)n2nc(-c3ccccc3)cc2[nH]1 [Compound 14] | No | – | – | 4.09 | cytotoxicity / biological response in HEK293, in words (HEK293 cells): did not elicit a biological effect; cytotoxicity / biological effect on U‐251 MG, in words (U‐251 MG cells [2]): did not elicit a biological effect |
| O=c1cc(-c2cc(C(F)(F)F)cc(C(F)(F)F)c2)[nH]c2cc(-c3ccc(Cl)cc3)nn12 [Compound 8] | – | < 4.30 | Yes | > 4.52 | pIC50 (HEK293 cells): 4.28; cytotoxicity / biological response in HEK293, in words (HEK293 cells): did not elicit any biological response; pIC50 (U‐251 MG cells [2]): 4.76 |
| O=c1cc(-c2cc(C(F)(F)F)cc(C(F)(F)F)c2)[nH]c2cc(-c3ccccc3)nn12 [Compound 5] | Yes | – | Yes | – | apoptosis observed (JC-1) (U‐251 MG cells [3]; IC50 concentration): 15.55%; apoptosis observed (JC-1) (U‐251 MG cells [3]; [5]): 14.34%; apoptosis observed (JC-1) (U‐251 MG cells [3]; highest toxic concentration): 52.97%; cytotoxicity / biological response in HEK293, in words (HEK293 cells): did not elicit any biological response; cell membrane permeabilization‐dependent cell death (PI), in words (U‐251 MG cells [4]): did not induce cell death by cell wall permeabilization |
| CCc1cc(=O)n2nc(C(C)C)cc2[nH]1 [Compound 19] | No | – | – | 3.81 | – |
| O=c1cc(-c2cc(C(F)(F)F)cc(C(F)(F)F)c2)[nH]c2cc(-c3ccc([N+](=O)[O-])cc3)nn12 [Compound 10] | Yes | < 4.30 | Yes | – | JC-1: significance of cell death, Neg Ctrl v HNT (U‐251 MG cells [3]; U‐251 MG, highest non-toxic concentration): * (0.01 to 0.05 (*)); JC-1: significance of cell death, Neg Ctrl v 50 µM (U‐251 MG cells [3]; U‐251 MG, highest toxic concentration 50 µM): *** (0.001 to 0.01(***)); pIC50 (HEK293 cells): 4.13; cytotoxicity / biological response in HEK293, in words (HEK293 cells): did not elicit any biological response; cell membrane permeabilization‐dependent cell death (PI), in words (U‐251 MG cells [4]): significant cell membrane permeabilization‐dependent cell death; PI: significance of cell death, Neg Ctrl v HNT (U‐251 MG cells [4]; [5]): ns (≥0.05 (ns)) |
| Cc1cc(=O)n2nc(C(C)C)cc2[nH]1 [Compound 1] | – | – | No | – | – |
| O=c1cc(-c2cc(C(F)(F)F)cc(C(F)(F)F)c2)[nH]c2cc(-c3cccc(C(F)(F)F)c3)nn12 [Compound 20] | No | – | – | 4.51 | – |
| CC(C)(C)c1cc2[nH]c(-c3ccccc3)cc(=O)n2n1 [Compound 17] | No | – | – | 4.12 | – |
| O=c1cc(-c2cc(C(F)(F)F)cc(C(F)(F)F)c2)[nH]c2cc(-c3cccc([N+](=O)[O-])c3)nn12 [Compound 23] | – | 4.22 | Yes | 4.53 | pIC50 (U‐251 MG cells [2]): 4.63 |
| Cc1cc(C)cc(-c2cc(=O)n3nc(C(C)C)cc3[nH]2)c1 [Compound 3] | – | 5.19 | No | – | – |
| O=c1cc(-c2cc(C(F)(F)F)cc(C(F)(F)F)c2)[nH]c2cc(-c3cccc(Cl)c3)nn12 [Compound 12] | No | > 4.52 | – | 4.66 | pIC50 (HEK293 cells): 4.53 |
| CC(C)c1cc2[nH]c(-c3cc(C(F)(F)F)cc(C(F)(F)F)c3)cc(=O)n2n1 [Compound 4] | – | 5.13 | No | > 4.70 | pIC50 (U‐251 MG cells [2]): 4.85 |
